Source: patent US4486419A, “5,2',3',4',4",6"-Hexadeoxykanamycin and its 1-N-acylated derivative” (Zaidan Hojin Biseibutsu Kagaku Kenkyu Kai, priority 1982, dated 1984)
≈ marks a conversion by molar mass, not a printed value. Where two headings read alike, the source gives them in different places.

How the values were obtained:
[1] = system: Pseudomonas aeruginosa H11; format: cell-based; details: nutrient agar, 37° C., 18 hours
[2] = system: Pseudomonas aeruginosa GN315; format: cell-based; details: nutrient agar, 37° C., 18 hours
[3] = system: Proteus rettgeri GN311; format: cell-based; details: Providencia rettgeri, nutrient agar, 37° C., 18 hours
[4] = system: Klebsiella pneumoniae 22 #3038; format: cell-based; details: nutrient agar, 37° C., 18 hours
[5] = system: Serratia 4; format: cell-based; details: nutrient agar, 37° C., 18 hours
[6] = system: Staphylococcus aureus Ap01; format: cell-based; details: nutrient agar, 37° C., 18 hours
[7] = system: Escherichia coli K-12 C 600R135; assay: microbe, parasite or virus in culture; format: cell-based; details: K12C600R135, 18 h
[8] = system: Escherichia coli K-12 ML 1630; format: cell-based; details: K12ML1630, nutrient agar, 37° C., 18 hours
[9] = system: Salmonella typhi T-63; format: cell-based; details: Salmonella enterica, 18 h
[10] = system: Serratia SOU; format: cell-based; details: nutrient agar, 37° C., 18 hours
[11] = system: Corynebacterium bovis 1810; assay: microbe, parasite or virus in culture; details: Corynebacterium bovis, 1810, 18 h
Protocol: (§1) Thus, the minimum inhibitory concentrations (mcg/ml) of the hexadeoxykanamycin and of the hexadeoxyamikacin according to this invention against various microorganisms were determined according to serial dilution method on a nutrient agar medium at 37° C., the estimation being made after 18 hours incubation. For comparison purpose, the minimum inhibitory concentrations of amikacin were also determined in the same manner as stated above.

[12] = system: Serratia marcescens; assay: microbe, parasite or virus in culture; details: 18 h
Protocol: as §1

[13] = system: Shigella flexneri 4b JS11811; format: cell-based; details: 4BJS11811, nutrient agar, 37° C., 18 hours
[14] = system: Staphylococcus aureus Smith; format: cell-based; details: nutrient agar, 37° C., 18 hours
[15] = system: Bacillus subtilis NRRL B-558; format: cell-based; details: NRRLB558, nutrient agar, 37° C., 18 hours
[16] = system: Escherichia coli W677; format: cell-based; details: nutrient agar, 37° C., 18 hours
[17] = system: Escherichia coli K-12 ML 1410 R81; assay: microbe, parasite or virus in culture; format: cell-based; details: 18 h
[18] = system: Shigella dysenteriae JS 11910; format: cell-based; details: JS11910, 18 h
[19] = system: Escherichia coli K-12 R 388; format: cell-based; details: K12R388, 18 h
[20] = system: Pseudomonas aeruginosa 99; format: cell-based
[21] = system: Mycobacterium smegmatis ATCC 607; format: cell-based; details: Mycolicibacterium smegmatis, ATCC607; nutrient agar, 37° C., 18 hours
[22] = system: Shigella sonnei JS11746; format: cell-based; details: nutrient agar, 37° C., 18 hours
[23] = system: Staphylococcus epidermidis 109; format: cell-based; details: nutrient agar, 37° C., 18 hours
[24] = system: Pseudomonas aeruginosa H9; format: cell-based
[25] = system: Pseudomonas aeruginosa K-Ps102; format: cell-based
[26] = system: Pseudomonas aeruginosa B-13; format: cell-based
[27] = system: Salmonella enteritidis 1891; format: cell-based; details: Salmonella enterica, nutrient agar, 37° C., 18 hours
[28] = system: Proteus rettgeri GN466; format: cell-based; details: Providencia rettgeri, nutrient agar, 37° C., 18 hours
[29] = system: Micrococcus luteus PCI 1001; format: cell-based; details: PCI1001, nutrient agar, 37° C., 18 hours
[30] = system: Escherichia coli NIHJ; format: cell-based; details: nutrient agar, 37° C., 18 hours
[31] = system: Escherichia coli K-12 LA 290 R55; assay: microbe, parasite or virus in culture; format: cell-based; details: K12LA290R55, 18 h
[32] = system: Escherichia coli K-12 J5R 11-2; format: cell-based; details: K12J5R112, nutrient agar, 37° C., 18 hours
[33] = system: Staphylococcus aureus FDA 209P; format: cell-based; details: FDA209P, nutrient agar, 37° C., 18 hours
[34] = system: Escherichia coli K-12 LA 290 R56; assay: microbe, parasite or virus in culture; format: cell-based; details: K12LA290R56, 18 h
[35] = system: Escherichia coli K-12 LA 290 R64; assay: microbe, parasite or virus in culture; format: cell-based; details: K12LA290R64, 18 h
[36] = system: Bacillus anthracis; assay: microbe, parasite or virus in culture; format: cell-based; details: 18 h
[37] = system: Escherichia coli JR66/W677; format: cell-based; details: JR66/W677, 18 h
[38] = system: Pseudomonas aeruginosa A3; format: cell-based
[39] = system: Providencia 2991; format: cell-based; details: nutrient agar, 37° C., 18 hours
[40] = system: Pseudomonas aeruginosa No. 12; format: cell-based; details: nutrient agar, 37° C., 18 hours
[41] = system: Pseudomonas aeruginosa 21-75; format: cell-based; details: 2175, nutrient agar, 37° C., 18 hours
[42] = system: Escherichia coli K-12 ML 1410; format: cell-based; details: K12ML1410, nutrient agar, 37° C., 18 hours

## C[C@@H]1C[C@H](N)[C@@H](O)[C@@H](O[C@@H]2C[C@H](O[C@@H]3CCC[C@@H](CN)O3)[C@@H](N)C[C@H]2NC(=O)[C@@H](O)CCN)O1 [Hexadeoxyamikacin, 1-N-[(S)-4-amino-2-hydroxybutyryl]-5,2',3',4',4",6"-hexadeoxykanamycin]
[1]
  MIC: 100 µg/mL (≈ 204 µM)
[2]
  MIC: > 100 µg/mL
[3]
  MIC: 1.56 µg/mL (≈ 3.19 µM)
[4]
  MIC: 3.13 µg/mL (≈ 6.39 µM)
[5]
  MIC: 12.5 µg/mL (≈ 25.5 µM)
[6]
  MIC: 3.13 µg/mL (≈ 6.39 µM)
[7]
  MIC: 1.56 µg/mL (≈ 3.19 µM)
[8]
  MIC: 3.13 µg/mL (≈ 6.39 µM)
[9]
  MIC: 0.78 µg/mL (≈ 1.59 µM)
[10]
  MIC: 50 µg/mL (≈ 102 µM)
[11]
  MIC: 6.25 µg/mL (≈ 12.8 µM)
[12]
  MIC: 6.25 µg/mL (≈ 12.8 µM)
[13]
  MIC: 6.25 µg/mL (≈ 12.8 µM)
[14]
  MIC: 1.56 µg/mL (≈ 3.19 µM)
[15]
  MIC: 0.78 µg/mL (≈ 1.59 µM)
[16]
  MIC: 0.78 µg/mL (≈ 1.59 µM)
[17]
  MIC: 3.13 µg/mL (≈ 6.39 µM)
[18]
  MIC: 6.25 µg/mL (≈ 12.8 µM)
[19]
  MIC: 0.78 µg/mL (≈ 1.59 µM)
[20]; Pseudomonas aeruginosa, 99, 18 h
  MIC: 50 µg/mL (≈ 102 µM)
[21]
  MIC: 1.56 µg/mL (≈ 3.19 µM)
[22]
  MIC: 3.13 µg/mL (≈ 6.39 µM)
[23]
  MIC: 1.56 µg/mL (≈ 3.19 µM)
[24]; H9, 18 h
  MIC: 50 µg/mL (≈ 102 µM)
[25]; KPS102, 18 h
  MIC: 50 µg/mL (≈ 102 µM)
[26]; B13, 18 h
  MIC: 50 µg/mL (≈ 102 µM)
[27]
  MIC: 3.13 µg/mL (≈ 6.39 µM)
[28]
  MIC: 1.56 µg/mL (≈ 3.19 µM)
[29]
  MIC: 6.25 µg/mL (≈ 12.8 µM)
[30]
  MIC: 1.56 µg/mL (≈ 3.19 µM)
[31]
  MIC: 1.56 µg/mL (≈ 3.19 µM)
[32]
  MIC: 1.56 µg/mL (≈ 3.19 µM)
[33]
  MIC: 0.78 µg/mL (≈ 1.59 µM)
[34]
  MIC: 1.56 µg/mL (≈ 3.19 µM)
[35]
  MIC: 3.13 µg/mL (≈ 6.39 µM)
[36]
  MIC: 1.56 µg/mL (≈ 3.19 µM)
[37]
  MIC: 3.13 µg/mL (≈ 6.39 µM)
[38]; A3, 18 h
  MIC: 0.78 µg/mL (≈ 1.59 µM)
[39]
  MIC: 6.25 µg/mL (≈ 12.8 µM)
[40]
  MIC: 25 µg/mL (≈ 51.1 µM)
[41]
  MIC: 100 µg/mL (≈ 204 µM)
[42]
  MIC: 3.13 µg/mL (≈ 6.39 µM)

## NCC[C@H](O)C(=O)N[C@@H]1C[C@H](N)[C@@H](O[C@H]2O[C@H](CN)[C@@H](O)[C@H](O)[C@H]2O)[C@H](O)[C@H]1O[C@H]1O[C@H](CO)[C@@H](O)[C@H](N)[C@H]1O [Amikacin, 1-N-[(S)-4-amino-2-hydroxybutyryl]kanamycin A, reference compound]
[1]
  MIC: 12.5 µg/mL (≈ 21.3 µM)
[2]
  MIC: 25 µg/mL (≈ 42.7 µM)
[3]
  MIC: 0.39 µg/mL (≈ 0.666 µM)
[4]
  MIC: 3.13 µg/mL (≈ 5.34 µM)
[5]
  MIC: 3.13 µg/mL (≈ 5.34 µM)
[6]
  MIC: 1.56 µg/mL (≈ 2.66 µM)
[7]
  MIC: 0.78 µg/mL (≈ 1.33 µM)
[8]
  MIC: 3.13 µg/mL (≈ 5.34 µM)
[9]
  MIC: 0.39 µg/mL (≈ 0.666 µM)
[10]
  MIC: 25 µg/mL (≈ 42.7 µM)
[11]
  MIC: 1.56 µg/mL (≈ 2.66 µM)
[12]
  MIC: 1.56 µg/mL (≈ 2.66 µM)
[13]
  MIC: 3.13 µg/mL (≈ 5.34 µM)
[14]
  MIC: 0.39 µg/mL (≈ 0.666 µM)
[15]
  MIC: 0.39 µg/mL (≈ 0.666 µM)
[16]
  MIC: 0.78 µg/mL (≈ 1.33 µM)
[17]
  MIC: 1.56 µg/mL (≈ 2.66 µM)
[18]
  MIC: 3.13 µg/mL (≈ 5.34 µM)
[19]
  MIC: 0.39 µg/mL (≈ 0.666 µM)
[20]; Pseudomonas aeruginosa, 99, nutrient agar, 37° C., 18 hours, read-out: MIC
  MIC: 6.25 µg/mL (≈ 10.7 µM)
[21]
  MIC: 0.78 µg/mL (≈ 1.33 µM)
[22]
  MIC: 3.13 µg/mL (≈ 5.34 µM)
[23]
  MIC: 3.13 µg/mL (≈ 5.34 µM)
[24]; H9, nutrient agar, 37° C., 18 hours, read-out: MIC
  MIC: 6.25 µg/mL (≈ 10.7 µM)
[25]; KPS102, nutrient agar, 37° C., 18 hours, read-out: MIC
  MIC: 6.25 µg/mL (≈ 10.7 µM)
[26]; B13, nutrient agar, 37° C., 18 hours, read-out: MIC
  MIC: 6.25 µg/mL (≈ 10.7 µM)
[27]
  MIC: 1.56 µg/mL (≈ 2.66 µM)
[28]
  MIC: 0.78 µg/mL (≈ 1.33 µM)
[29]
  MIC: 3.13 µg/mL (≈ 5.34 µM)
[30]
  MIC: 1.56 µg/mL (≈ 2.66 µM)
[31]
  MIC: 1.56 µg/mL (≈ 2.66 µM)
[32]
  MIC: 1.56 µg/mL (≈ 2.66 µM)
[33]
  MIC: 0.78 µg/mL (≈ 1.33 µM)
[34]
  MIC: 0.78 µg/mL (≈ 1.33 µM)
[35]
  MIC: 1.56 µg/mL (≈ 2.66 µM)
[36]
  MIC: 0.78 µg/mL (≈ 1.33 µM)
[37]
  MIC: 3.13 µg/mL (≈ 5.34 µM)
[38]; A3, nutrient agar, 37° C., 18 hours, read-out: MIC
  MIC: < 0.2 µg/mL
[39]
  MIC: 1.56 µg/mL (≈ 2.66 µM)
[40]
  MIC: 3.13 µg/mL (≈ 5.34 µM)
[41]
  MIC: 12.5 µg/mL (≈ 21.3 µM)
[42]
  MIC: 1.56 µg/mL (≈ 2.66 µM)
